{"source": "PubChem BioAssay (NCI)", "test_in_all_cases": "NCI-60 cell line screen, 48 h", "key": {"HOP-92 NSCLC": {"system": "HOP-92 NSCLC"}, "CCRF-CEM leukemia": {"system": "CCRF-CEM leukemia"}, "UACC-62 melanoma": {"system": "UACC-62 melanoma"}, "SNB-75 CNS": {"system": "SNB-75 CNS"}, "U251 CNS": {"system": "U251 CNS"}, "NCI-H226 lung": {"system": "NCI-H226 lung"}, "OVCAR-5 ovarian": {"system": "OVCAR-5 ovarian"}, "M14 melanoma": {"system": "M14 melanoma"}, "NCI-H522 lung": {"system": "NCI-H522 lung"}, "HL-60(TB) leukemia": {"system": "HL-60(TB) leukemia"}, "IGROV1 ovarian": {"system": "IGROV1 ovarian"}, "HT29 colon": {"system": "HT29 colon"}, "SF-295 CNS": {"system": "SF-295 CNS"}, "COLO 205 colon": {"system": "COLO 205 colon"}, "PC-3 prostate": {"system": "PC-3 prostate"}, "SW-620 colon": {"system": "SW-620 colon"}, "A549 NSCLC": {"system": "A549 NSCLC"}, "NCI-H460 lung": {"system": "NCI-H460 lung"}, "OVCAR-4 ovarian": {"system": "OVCAR-4 ovarian"}, "MCF7 breast": {"system": "MCF7 breast"}, "NCI-H23 lung": {"system": "NCI-H23 lung"}, "TK-10 renal": {"system": "TK-10 renal"}, "HCT-116 colon": {"system": "HCT-116 colon"}, "MDA-MB-231 breast": {"system": "MDA-MB-231 breast"}, "T-47D breast": {"system": "T-47D breast"}, "BT-549 breast": {"system": "BT-549 breast"}, "A498 renal": {"system": "A498 renal"}, "MALME-3M melanoma": {"system": "MALME-3M melanoma"}, "SR leukemia": {"system": "SR leukemia"}}, "note": "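Where inhibition never reached the appropriate level, the endpoint shown equals the highest concentration tested. Otherwise, values were interpolated linearly from a five-concentration, 48-hour dose response in 96-well plates. GI50 = concentration required for 50% inhibition of growth. At the TGI there is no net growth.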"}
{"compound": "C[C@@H](Nc1c(C#N)cnc2ccc(-c3cnc(Cl)c(NS(C)(=O)=O)c3)cc12)c1ccccc1", "values": [{"measurement": "GI50", "setting": "HOP-92 NSCLC", "value": 51.5, "unit": "nM"}, {"measurement": "TGI", "setting": "HOP-92 NSCLC", "value": 636, "unit": "nM"}, {"measurement": "GI50", "setting": "CCRF-CEM leukemia", "value": 178, "unit": "nM"}, {"measurement": "TGI", "setting": "CCRF-CEM leukemia", "value": "> 21400", "unit": "nM"}, {"measurement": "GI50", "setting": "UACC-62 melanoma", "value": 206, "unit": "nM"}, {"measurement": "TGI", "setting": "UACC-62 melanoma", "value": 2030, "unit": "nM"}, {"measurement": "GI50", "setting": "SNB-75 CNS", "value": "< 35.3", "unit": "nM"}, {"measurement": "TGI", "setting": "SNB-75 CNS", "value": 701, "unit": "nM"}, {"measurement": "GI50", "setting": "U251 CNS", "value": 335, "unit": "nM"}, {"measurement": "TGI", "setting": "U251 CNS", "value": 13400, "unit": "nM"}, {"measurement": "GI50", "setting": "NCI-H226 lung", "value": 676, "unit": "nM"}, {"measurement": "TGI", "setting": "NCI-H226 lung", "value": 18200, "unit": "nM"}, {"measurement": "GI50", "setting": "OVCAR-5 ovarian", "value": 544, "unit": "nM"}, {"measurement": "TGI", "setting": "OVCAR-5 ovarian", "value": 19200, "unit": "nM"}, {"measurement": "GI50", "setting": "M14 melanoma", "value": 442, "unit": "nM"}, {"measurement": "TGI", "setting": "M14 melanoma", "value": 12500, "unit": "nM"}, {"measurement": "GI50", "setting": "NCI-H522 lung", "value": 440, "unit": "nM"}, {"measurement": "TGI", "setting": "NCI-H522 lung", "value": 11500, "unit": "nM"}, {"measurement": "GI50", "setting": "HL-60(TB) leukemia", "value": 222, "unit": "nM"}, {"measurement": "TGI", "setting": "HL-60(TB) leukemia", "value": 6480, "unit": "nM"}, {"measurement": "GI50", "setting": "IGROV1 ovarian", "value": 181, "unit": "nM"}, {"measurement": "TGI", "setting": "IGROV1 ovarian", "value": 1010, "unit": "nM"}, {"measurement": "GI50", "setting": "HT29 colon", "value": 351, "unit": "nM"}, {"measurement": "TGI", "setting": "HT29 colon", "value": 12900, "unit": "nM"}, {"measurement": "GI50", "setting": "SF-295 CNS", "value": 252, "unit": "nM"}, {"measurement": "TGI", "setting": "SF-295 CNS", "value": 2290, "unit": "nM"}, {"measurement": "GI50", "setting": "COLO 205 colon", "value": 340, "unit": "nM"}, {"measurement": "TGI", "setting": "COLO 205 colon", "value": 2240, "unit": "nM"}, {"measurement": "GI50", "setting": "PC-3 prostate", "value": 259, "unit": "nM"}, {"measurement": "TGI", "setting": "PC-3 prostate", "value": 7970, "unit": "nM"}, {"measurement": "GI50", "setting": "SW-620 colon", "value": 343, "unit": "nM"}, {"measurement": "TGI", "setting": "SW-620 colon", "value": 12100, "unit": "nM"}, {"measurement": "GI50", "setting": "A549 NSCLC", "value": 492, "unit": "nM"}, {"measurement": "TGI", "setting": "A549 NSCLC", "value": 6470, "unit": "nM"}, {"measurement": "GI50", "setting": "NCI-H460 lung", "value": 357, "unit": "nM"}, {"measurement": "TGI", "setting": "NCI-H460 lung", "value": 12000, "unit": "nM"}, {"measurement": "GI50", "setting": "OVCAR-4 ovarian", "value": 450, "unit": "nM"}, {"measurement": "TGI", "setting": "OVCAR-4 ovarian", "value": 15400, "unit": "nM"}, {"measurement": "GI50", "setting": "MCF7 breast", "value": 41.7, "unit": "nM"}, {"measurement": "TGI", "setting": "MCF7 breast", "value": 4080, "unit": "nM"}, {"measurement": "GI50", "setting": "NCI-H23 lung", "value": 233, "unit": "nM"}, {"measurement": "TGI", "setting": "NCI-H23 lung", "value": 5840, "unit": "nM"}, {"measurement": "GI50", "setting": "TK-10 renal", "value": 184, "unit": "nM"}, {"measurement": "TGI", "setting": "TK-10 renal", "value": 1880, "unit": "nM"}, {"measurement": "GI50", "setting": "HCT-116 colon", "value": 124, "unit": "nM"}, {"measurement": "TGI", "setting": "HCT-116 colon", "value": 4830, "unit": "nM"}, {"measurement": "GI50", "setting": "MDA-MB-231 breast", "value": 594, "unit": "nM"}, {"measurement": "TGI", "setting": "MDA-MB-231 breast", "value": 16600, "unit": "nM"}, {"measurement": "GI50", "setting": "T-47D breast", "value": 112, "unit": "nM"}, {"measurement": "TGI", "setting": "T-47D breast", "value": 3880, "unit": "nM"}, {"measurement": "GI50", "setting": "BT-549 breast", "value": 146, "unit": "nM"}, {"measurement": "TGI", "setting": "BT-549 breast", "value": 2560, "unit": "nM"}, {"measurement": "GI50", "setting": "A498 renal", "value": 207, "unit": "nM"}, {"measurement": "TGI", "setting": "A498 renal", "value": 778, "unit": "nM"}, {"measurement": "GI50", "setting": "MALME-3M melanoma", "value": 166, "unit": "nM"}, {"measurement": "TGI", "setting": "MALME-3M melanoma", "value": 1820, "unit": "nM"}, {"measurement": "GI50", "setting": "SR leukemia", "value": 206, "unit": "nM"}, {"measurement": "TGI", "setting": "SR leukemia", "value": 6190, "unit": "nM"}]}
